Read-outs that look alike come from different tables or passages of the source.
Tests used:
lettuce [1] = settings: 3-chlorosalicylate 100 mg/L double application, benzothiadiazole salt 50 mg/L single application
Description: The purpose of the study was to determine the effect of foliar spraying with test solutions on lettuce plants (Lactuca sativa L. ‘Zeralda’) under abiotic stress conditions—low temperature. After 7 and 14 days after transplanting the plants to a permanent place, spraying of the plants was carried out. […] After another 7 days, low temperature stress was induced—plants were grown in three glass chambers with a day temperature of 22° C. and night temperatures of 4, 12 and 20° C. until harvest.

[2] = system: apple trees (M9 rootstocks); settings: 4 sprays at 14-day intervals; 3-chlorosalicylate 100 mg/L, benzothiadiazole salt 25 mg/L
Source text: Flowers were counted during the experiment, and the number of shoots and leaves in the fall.

tulip = assay: Tulip bulbs in peat watered with working solution: height, stem diameter, weights, root length, flowering, vigor (Example 1); type: in vivo; settings: 80 mg/L, benzothiadiazole salt 30 mg/L
Description: Control plants were watered with distilled water. During the conducted experiment, plant height was measured before each treatment. Flowering length and plant vigor were also studied. After 20 days from the end of the last treatment, the fresh and dry weight of aboveground parts and roots, and root length were assessed.

lettuce [3] = settings: double application, 3-chlorosalicylate 100 mg/L, benzothiadiazole salt 50 mg/L
Source text: The purpose of the study was to determine the effect of foliar spraying with test solutions on lettuce (Lactuca sativa L. ‘Zeralda’) plants. The plants were sprayed 7 and 14 days after transplanting to a permanent site. […] After another 7 days, drought stress was induced (plants in the selected combinations were not watered until symptoms of leaf wilting appeared), followed by proper watering of the plants again. Control plants were watered in turn to a constant weight. After 3 days after re-watering, chlorophyll fluorescence was measured (OJIP test, methodology described, among others, in Kalaji H. M., 2011. Impact of abiotic stress factors on chlorophyll fluorescence in plants of selected barley cultivars Hordeum vulgare L. SGGW Publishing House, Warsaw [https://badanieroslin.pl/wp-content/uploads/2018/11/Oddzialywanie-abiotycznych-czynnikow. . . ..pdf]) and the condition of the plants was assessed.
The measurement was carried out after inducing drought stress, followed by re-watering the plants to a constant weight. […] This parameter is lowered by stresses.

tomato = assay: Greenhouse tomato sprayed three times: yield, health-promoting substances, leaf chlorophyll (Example 2); type: in vivo; settings: 80 mg/L, benzothiadiazole salt 30 mg/L, chitosan lactate 50 mg/L
Description: Biostimulant properties were evaluated for the following stimulants: […] The evaluation of stimulant properties included the influence of tested substances on tomato yield, content of health-promoting substances in yield and chlorophyll content in tomato leaves. […] The untreated control plants were sprayed with distilled water. During the experiment, total yield weight, commercial and non-commercial yield and average commercial fruit weight, number of fruits per plant and average fruit weight per plant were evaluated. […] Chlorophyll was measured before each treatment and one day after each treatment using Minolta's SPAD-502 chlorophyll meter.

[4] = Table 2, 20 days after last treatment
[5] = Table 3 (title: tulip bulbs / root system)

## C[N+](C)(C)CCO.O=C([O-])c1cccc(Cl)c1O [choline 3-chlorosalicylate]
Lettuce [1]; night temperature 4° C.
  Head weight, 4° C.: 48.9 b g/plant
Lettuce [1]; night temperature 12° C.
  Head weight, 12° C.: 52.8 b g/plant
Lettuce [1]; night temperature 20° C.
  Head weight, 20° C.: 65.3 b g/plant
[2]
  Average number of flowers per plant: 30.3 b
  Average number of leaves per plant: 45.3 b
  Average number of shoots per plant: 6.7 b
tulip
  Average stem diameter at the end of the experiment 20 days after the 4th treatment: 8.1 b mm
  Flowering length: 23 days
  Root length: 84.3 b mm
tulip; 1 is a laying plant, 5 is a stiff plant
  Vigor [on a scale from 1 to 5]: 4.8 b
tulip; [4]
  Average dry weight of the above-ground part: 41.8 b g
  Average fresh weight of the above-ground part: 443.8 b g
tulip; [5]
  Average dry weight of the above-ground part: 5.6 b g
  Average fresh weight of the above-ground part: 59.5 b g
tulip; before 1st watering
  Average plant height, initial height, first treatment: 45.7 a mm
tulip; before 2nd watering
  Average plant height, second treatment: 130.5 b mm
tulip; before 3rd watering
  Average plant height, third treatment: 257.4 b mm
tulip; before 4th watering
  Average plant height, fourth treatment: 369.1 b mm
tulip; end of experiment
  Average plant height, 20 days after the 4th treatment: 510.9 b mm
Lettuce [3]; Control (watered)
  ABS/RC: 1.48 b
  DIo/RC: 0.24 a
  ETo/RC: 1.08 b
  F0: 4877 a
  FM: 34278 a
  FM/F0: 7.32 c
  Fv: 29401 a
  Fv/F0: 6.32 c
  Fv/FM: 0.86 c
  Pi_Abs (PSII functioning index calculated on the basis of energy absorption): 12.74 days
  TRo/RC: 1.72 b
Lettuce [3]; Drought
  ABS/RC: 1.20 a
  DIo/RC: 0.24 a
  ETo/RC: 0.81 a
  F0: 5524 a
  FM: 33908 a
  FM/F0: 6.16 ab
  Fv: 28384 b
  Fv/F0: 5.16 ab
  Fv/FM: 0.84 ab
  Pi_Abs (PSII functioning index calculated on the basis of energy absorption): 7.77 b
  TRo/RC: 1.44 a
Lettuce [3]
  % dry matter (leaf), Average: 3.72 b %
  % dry matter (leaf), Drought: 3.55 b %
  % dry matter (leaf), Watered: 3.96 b %
  Head and root weight, Average: 72.5 a g/plant
  Head and root weight, Drought: 71.7 abc g/plant
  Head and root weight, Watered: 73.2 abc g/plant
  Head weight, Average: 51.3 a g/plant
  Head weight, Drought: 52.8 b g/plant
  Head weight, Watered: 50.6 ab g/plant
  RWC (relative water content), Watered: 73.2 ab %
  RWC, Average: 73.3 a %
  RWC, Drought: 71.9 ab %
tomato
  Chlorophyll content (SPAD), a day after treatment #1: 61.4 b
  Chlorophyll content (SPAD), a day after treatment #2: 60.3 b
  Chlorophyll content (SPAD), a day after treatment #3: 62.5 b
tomato; before treatment #1
  Chlorophyll content (SPAD), Treatment #1: 50.2 a
tomato; before treatment #2
  Chlorophyll content (SPAD), Treatment #2: 49.4 a
tomato; before treatment #3
  Chlorophyll content (SPAD), Treatment #3: 50.9 a
tomato; spray 3x
  Average fruit weight per plant: 154.23 b g
  Average weight of marketable fruit: 26.25 b kg/m^2
  Commercial yield: 18.4 b kg/m^2
  Number of fruits per plant: 4.30 b
  Total yield: 19.13 b kg/m^2
tomato; tomato fruits
  Calcium: 97.2 a mg/kg
  Lycopene: 36.4 b mg/kg
  Magnesium: 104.5 b mg/kg
  Vit. C: 191.5 c mg/kg
  Vit. E: 25.6 b mg/kg
  °Brix (sugar content of the liquid expressed in degree of Brix): 5.91 b g
